Assay results reported in ChEMBL document CHEMBL5143529, “Design, synthesis, and biological evaluation of novel (4-(1,2,4-oxadiazol-5-yl)phenyl)-2-aminoacetamide derivatives as multifunctional agents for the treatment of Alzheimer's disease” (Eur J Med Chem, 2022).
Calls of active or inactive are those of the source. The rule behind the calls is not given here.

What was measured:
Cholinesterase [1] = target: T1, Cholinesterase (Equus caballus, UniProt P81908)
Description: Inhibition of equine serum BuChE using butyrylthiocholine iodide as substrate preincubated for 20 mins followed by substrate addition and measured after 5 mins by DTNB-reagent based Ellman's method

[2] = Antioxidant activity assessed as DPPH radical scavenging activity at 10 uM incubated for 2 hrs under dark condition by microplate reader method relative to control; assay type: functional
[3] = Inhibition of LPS-induced TNF-alpha secretion in mouse BV-2 cells preincubated for 1 hr followed by LPS stimulation and measured after 24 hrs by ELISA; assay type: functional, cell-based
[4] = Metal chelating activity assessed as Cu2+-compound complex formation by measuring reduction in maximum absorbance intensity at 20 uM incubated for 1 hr by UV-visible spectrophotometry
[5] = Cytotoxicity against rat PC-12 cells assessed as cell viability at 25 uM incubated for 24 hrs by MTT assay relative to control; assay type: toxicity, cell-based; conditions: read-out: Activity
in vitro [6] = conditions: dog, MDCK-MDR1
Description: Apparent permeability across apical to basolateral side in MDCKII-MDR1 cells at 75 uM incubated for 2 hrs

[7] = target: T2, Inhibitor of nuclear factor kappa-B kinase subunit beta (Mus musculus) (UniProt O88351); experiment: Inhibition of IkappaB phosphorylation in LPS-stimulated mouse BV-2 cells pretreated for 1 hr followed by LPS stimulation and measured after 24 hrs by Western blot analysis; assay type: cell-based; conditions: dose 1-10 µM, time 25.0 hrs, DDE = dose-dependent effect
T2 sequence (whole entry): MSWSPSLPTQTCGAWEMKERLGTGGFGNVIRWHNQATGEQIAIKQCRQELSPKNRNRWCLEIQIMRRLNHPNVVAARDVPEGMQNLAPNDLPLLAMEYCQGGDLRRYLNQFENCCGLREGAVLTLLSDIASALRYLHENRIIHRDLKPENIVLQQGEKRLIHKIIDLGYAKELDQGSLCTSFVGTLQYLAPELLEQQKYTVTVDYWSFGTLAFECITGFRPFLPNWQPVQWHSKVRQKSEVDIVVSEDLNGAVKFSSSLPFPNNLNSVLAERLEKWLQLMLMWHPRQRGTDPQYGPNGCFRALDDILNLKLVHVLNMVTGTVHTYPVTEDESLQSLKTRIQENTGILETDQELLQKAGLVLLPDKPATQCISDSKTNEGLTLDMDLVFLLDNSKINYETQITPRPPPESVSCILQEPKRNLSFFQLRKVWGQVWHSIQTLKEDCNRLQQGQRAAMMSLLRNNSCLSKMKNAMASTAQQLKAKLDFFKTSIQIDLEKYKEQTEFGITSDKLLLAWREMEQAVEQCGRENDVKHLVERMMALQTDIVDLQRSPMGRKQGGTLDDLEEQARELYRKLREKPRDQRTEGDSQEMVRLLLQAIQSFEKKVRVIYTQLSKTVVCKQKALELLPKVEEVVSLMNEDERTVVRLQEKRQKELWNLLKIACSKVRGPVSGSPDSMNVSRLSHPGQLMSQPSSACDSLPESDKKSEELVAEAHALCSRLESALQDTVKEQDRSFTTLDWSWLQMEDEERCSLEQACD

Mus musculus [8] = experiment: Anti-alzheimer activity against scopolamine-induced cognitive dysfunction C57BL/6 mouse model assessed as improvement in cognitive impairment by measuring increase in number of platform crossing at 30 mg/kg, IG administered for 7 days followed by scopolamine stimulation and measured after 4 days by Morris water maze test; assay type: functional, organism-based; conditions: time 11.0 day
[9] = Toxicity in C57BL/6 mouse assessed as abnormal fluctuations in body weight at 10 to 30 mg/kg, IG measured after 7 days; assay type: organism-based; conditions: in vivo, po, 168 h, dose 10-30 mg/kg, time 7 day
cells = conditions: Mus musculus, BV-2
Description: Inhibition of NO production in LPS-induced mouse BV-2 cells pretreated for 1 hr followed by LPS stimulation and measured after 24 hrs by ELISA

[10] = target: T2, Inhibitor of nuclear factor kappa-B kinase subunit beta (Mus musculus); experiment: Inhibition of IkappaB activation in LPS-stimulated mouse BV-2 cells pretreated for 1 hr followed by LPS stimulation and measured after 24 hrs by Western blot analysis; assay type: cell-based; conditions: dose 1-10 µM, time 25.0 hrs, DDE = dose-dependent effect
Mus musculus [11] = experiment: Anti-alzheimer activity against scopolamine-induced cognitive dysfunction C57BL/6 mouse model assessed as reduction in escape latency time administered intragastrically for 7 days followed by scopolamine stimulation and measured after 4 days by Morris water maze test; assay type: functional, organism-based; conditions: dose 10-30 mg/kg, route ig, time 11.0 day, DDE = dose-dependent effect
BV-2 [12] = experiment: Downregulation of iNOS protein expression in LPS-stimulated mouse BV-2 cells preincubated for 1 hr followed by LPS stimulation and measured after 24 hrs by Western blot analysis; assay type: functional, cell-based; conditions: dose 1-10 µM, time 25.0 hrs, DDE = dose-dependent effect
SH-SY5Y = experiment: Inhibition of H2O2-induced ROS production in human SH-SY5Y cells assessed as reduction in ROS accumulation at 1 to 50 uM pretreated for 6 hrs followed by H2O2 stimulation and measured after 18 hrs by DCFH-DA staining based fluorescence assay; assay type: functional, cell-based; conditions: dose 1-50 µM, time 24.0 hrs
BV-2 [13] = experiment: Downregulation of COX-2 protein expression in LPS-stimulated mouse BV-2 cells preincubated for 1 hr followed by LPS stimulation and measured after 24 hrs by Western blot analysis; assay type: functional, cell-based; conditions: dose 1-10 µM, time 25.0 hrs, DDE = dose-dependent effect
[14] = Toxicity in C57BL/6 mouse assessed as median lethal dose administered intragastrically for 7 days; conditions: in vivo, po, time 7 day
P-glycoprotein = experiment: in vitro; conditions: dog, MDCK-MDR1
Description: Substrate activity at P-glycoprotein in MDCKII-MDR1 cells assessed as efflux ratio apparent permeability across basolateral to apical side over apical to basolateral side at 75 uM incubated for 2 hrs

PC-12 [15] = experiment: Neuroprotective activity against H202-induced cell death in rat PC-12 cells assessed as cell viability at 5 uM pretreated for 3 hrs followed by H2O2 stimulation and measured after 24 hrs by MTT assay relative to control; assay type: functional; conditions: time 27 hrs, read-out: Activity
[16] = Toxicity in C57BL/6 mouse model of scopolamine-induced Alzheimer's disease assessed as changes in swimming speed at 10 to 30 mg/kg, IG measured after 7 days; assay type: organism-based; conditions: in vivo, po, 168 h, dose 10-30 mg/kg, time 7 day
[17] = Antioxidant activity assessed as DPPH radical scavenging activity at 1000 uM incubated for 2 hrs under dark condition by microplate reader method relative to control; assay type: functional
Cholinesterase [18] = target: T1, Cholinesterase; experiment: Mixed type inhibition of equine serum BuChE assessed as inhibition constant using varying level of butyrylthiocholine iodide as substrate by Lineweaver-Burk plot double reciprocal analysis
PC-12 [19] = experiment: Inhibition of H2O2-induced ROS production in rat PC-12 cells assessed as reduction in ROS accumulation at 1 to 50 uM pretreated for 6 hrs followed by H2O2 stimulation and measured after 18 hrs by DCFH-DA staining based fluorescence assay; assay type: functional, cell-based; conditions: dose 1-50 µM, time 24.0 hrs
BV-2 [20] = experiment: Inhibition of NF-kappaB in LPS-stimulated mouse BV-2 cells assessed as reduction in translocation of p65 NF-kappaB from cytoplasm to nucleus at 1 to 10 uM pretreated for 1 hr followed by LPS stimulation and measured after 24 hrs; assay type: cell-based; conditions: dose 1-10 µM, time 25.0 hrs
[21] = target: Transcription factor p65 (Mus musculus) (UniProt Q04207); experiment: Inhibition of p65 phosphorylation in LPS-stimulated mouse BV-2 cells at 1 to 10 uM pretreated for 1 hr followed by LPS stimulation and measured after 24 hrs by Western blot analysis; assay type: cell-based; conditions: dose 1-10 µM, time 25.0 hrs
[22] = Inhibition of LPS-induced IL-1beta secretion in mouse BV-2 cells preincubated for 1 hr followed by LPS stimulation and measured after 24 hrs by ELISA; assay type: functional, cell-based
[23] = target: Amyloid-beta precursor protein (Homo sapiens) (UniProt P05067); experiment: Inhibition of amyloid beta (1 to 42 ) (unknown origin) self aggregation at 100 uM measured after 48 hrs by transmission electron microscopic analysis
PC-12 [24] = experiment: Neuroprotective activity against H202-induced cell death in rat PC-12 cells assessed as cell viability at 20 uM pretreated for 3 hrs followed by H2O2 stimulation and measured after 24 hrs by MTT assay relative to control; assay type: functional; conditions: time 27 hrs, read-out: Activity
in vitro [25] = conditions: dog, MDCK-MDR1; remark: listed apart in the source
Description: Apparent permeability across basolateral to apical side in MDCKII-MDR1 cells at 75 uM incubated for 2 hrs

[26] = Cytotoxicity against rat PC-12 cells assessed as cell viability at 50 uM incubated for 24 hrs by MTT assay relative to control; assay type: toxicity, cell-based; conditions: read-out: Activity
[27] = target: Cholinesterase (Equus caballus) (UniProt P81908); experiment: Mixed type inhibition of equine serum BuChE assessed as decrease in Vmax with increase in Km at 0.5 to 2 uM using varying level of butyrylthiocholine iodide as substrate by Lineweaver-Burk plot double reciprocal analysis; conditions: dose 0.5-2 µM
Acetylcholinesterase = Acetylcholinesterase (Electrophorus electricus, UniProt O42275); experiment: Inhibition of electric eel AChE using acetylthiocholine iodide as substrate preincubated for 20 mins followed by substrate addition and measured after 5 mins by DTNB-reagent based Ellman's method
Acetylcholinesterase, sequence (O42275 whole entry): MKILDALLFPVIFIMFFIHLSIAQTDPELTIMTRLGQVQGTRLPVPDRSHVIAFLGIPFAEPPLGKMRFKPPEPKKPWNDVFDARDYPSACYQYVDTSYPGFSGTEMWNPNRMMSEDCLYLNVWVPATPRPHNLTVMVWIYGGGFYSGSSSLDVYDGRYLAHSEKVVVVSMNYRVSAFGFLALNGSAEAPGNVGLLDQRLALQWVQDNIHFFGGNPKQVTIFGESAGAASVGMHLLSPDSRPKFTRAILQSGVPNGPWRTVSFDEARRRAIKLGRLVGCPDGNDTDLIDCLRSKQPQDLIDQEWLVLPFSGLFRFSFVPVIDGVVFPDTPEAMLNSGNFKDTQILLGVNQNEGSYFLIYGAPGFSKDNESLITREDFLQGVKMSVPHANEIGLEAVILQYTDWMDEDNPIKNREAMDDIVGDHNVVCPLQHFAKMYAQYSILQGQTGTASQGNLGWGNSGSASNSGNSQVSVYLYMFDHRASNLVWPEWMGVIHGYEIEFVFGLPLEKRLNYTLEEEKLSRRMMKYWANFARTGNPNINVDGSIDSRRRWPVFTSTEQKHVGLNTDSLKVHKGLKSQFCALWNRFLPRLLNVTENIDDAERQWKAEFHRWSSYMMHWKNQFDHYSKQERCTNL

T1 sequence (P81908 whole entry): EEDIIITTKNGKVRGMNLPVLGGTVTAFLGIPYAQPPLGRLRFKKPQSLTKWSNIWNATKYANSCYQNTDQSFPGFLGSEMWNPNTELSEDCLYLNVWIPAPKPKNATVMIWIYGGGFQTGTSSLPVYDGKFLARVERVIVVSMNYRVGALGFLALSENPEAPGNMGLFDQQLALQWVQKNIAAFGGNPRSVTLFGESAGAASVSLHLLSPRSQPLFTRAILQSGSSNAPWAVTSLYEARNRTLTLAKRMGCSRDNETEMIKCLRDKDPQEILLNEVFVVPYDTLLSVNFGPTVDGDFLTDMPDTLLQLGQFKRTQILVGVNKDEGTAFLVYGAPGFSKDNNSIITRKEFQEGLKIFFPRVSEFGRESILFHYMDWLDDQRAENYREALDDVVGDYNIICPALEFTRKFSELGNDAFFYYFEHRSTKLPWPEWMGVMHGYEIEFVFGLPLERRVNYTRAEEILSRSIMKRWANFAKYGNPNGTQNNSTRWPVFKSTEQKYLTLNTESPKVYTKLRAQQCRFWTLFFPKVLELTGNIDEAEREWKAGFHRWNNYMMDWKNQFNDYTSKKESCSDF
Cholinesterase (Equus caballus), sequence (P81908 whole entry): as above
Amyloid-beta precursor protein (Homo sapiens), sequence (P05067 whole entry): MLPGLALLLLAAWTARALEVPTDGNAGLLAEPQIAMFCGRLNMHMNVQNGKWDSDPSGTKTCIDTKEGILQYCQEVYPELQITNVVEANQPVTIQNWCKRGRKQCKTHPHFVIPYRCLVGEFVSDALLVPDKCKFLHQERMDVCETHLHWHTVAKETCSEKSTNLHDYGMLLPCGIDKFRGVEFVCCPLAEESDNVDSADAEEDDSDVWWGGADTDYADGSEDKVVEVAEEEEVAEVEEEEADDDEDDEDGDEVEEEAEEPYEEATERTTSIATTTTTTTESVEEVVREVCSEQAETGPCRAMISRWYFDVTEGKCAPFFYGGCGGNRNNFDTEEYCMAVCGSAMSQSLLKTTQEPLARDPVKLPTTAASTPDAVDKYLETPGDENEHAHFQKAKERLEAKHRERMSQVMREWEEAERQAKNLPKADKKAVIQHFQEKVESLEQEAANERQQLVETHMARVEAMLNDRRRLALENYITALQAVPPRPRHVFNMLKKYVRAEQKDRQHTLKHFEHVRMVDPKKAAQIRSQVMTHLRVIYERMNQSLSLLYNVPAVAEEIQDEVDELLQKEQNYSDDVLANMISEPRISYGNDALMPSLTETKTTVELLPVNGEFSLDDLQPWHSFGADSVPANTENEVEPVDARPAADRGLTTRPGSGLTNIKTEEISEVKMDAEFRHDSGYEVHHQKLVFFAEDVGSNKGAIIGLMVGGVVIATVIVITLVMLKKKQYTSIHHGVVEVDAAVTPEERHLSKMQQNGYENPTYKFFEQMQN
Transcription factor p65 (Mus musculus), sequence (Q04207 whole entry): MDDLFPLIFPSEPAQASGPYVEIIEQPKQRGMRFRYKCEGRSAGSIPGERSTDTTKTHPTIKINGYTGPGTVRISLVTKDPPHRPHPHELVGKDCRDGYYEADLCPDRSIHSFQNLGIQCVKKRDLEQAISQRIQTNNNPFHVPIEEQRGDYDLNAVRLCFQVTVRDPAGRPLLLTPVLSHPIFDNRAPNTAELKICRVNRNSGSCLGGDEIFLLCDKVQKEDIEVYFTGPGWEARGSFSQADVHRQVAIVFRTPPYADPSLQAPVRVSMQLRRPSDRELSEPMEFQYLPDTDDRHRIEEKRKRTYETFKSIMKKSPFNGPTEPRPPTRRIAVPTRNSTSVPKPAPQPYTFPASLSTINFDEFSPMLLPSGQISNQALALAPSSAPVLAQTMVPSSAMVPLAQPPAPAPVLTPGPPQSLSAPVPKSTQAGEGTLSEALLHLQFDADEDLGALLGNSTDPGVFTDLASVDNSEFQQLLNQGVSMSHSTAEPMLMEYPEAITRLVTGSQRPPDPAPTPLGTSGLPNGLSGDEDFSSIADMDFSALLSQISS

`O=C(CNc1ccc(F)cc1)Nc1ccc(-c2nc(-c3ccnc(Nc4ccc(OC(F)(F)F)cc4)c3)no2)cc1` gave an IC50 (Cholinesterase [1]) of 1280 nM, an Activity [2] of 86.1% and an IC50 [3] of 4150 nM. For the same molecule, the Activity [4] was “Active”, the viability at 24 h, 25 µM [5] was 99.7% and the Papp A→B at 2 h, 75 µM (in vitro [6]) was 17.2 ×10⁻⁶ cm/s. The inhibition [7] was “Dde”, the Activity (Mus musculus [8]) was “Active” and the Activity [9] was “Non-Toxic”. The IC50 (cells) was 670 nM, the inhibition [10] was “Dde” and the Activity (Mus musculus [11]) was “Dde”. For the same molecule, the Activity (BV-2 [12]) was “Dde”, the inhibition (SH-SY5Y) was “Active” and the Activity (BV-2 [13]) was “Dde”. It also gave an LD50 at 168 h [14] of 75.4 mg/kg, an efflux ratio at 2 h, 75 µM (P-glycoprotein) of 0.95 and a viability at 5 µM (PC-12 [15]) of 46.5%. For the same molecule, the Activity [16] was “Non-Toxic”, the Activity [17] was 34.6% and the Ki (Cholinesterase [18]) was 610 nM. The inhibition (PC-12 [19]) was “Active”, the inhibition (BV-2 [20]) was “Active” and the inhibition [21] was “Active”. For the same molecule, the IC50 [22] was 1610 nM, the inhibition [23] was “Active” and the viability at 20 µM (PC-12 [24]) was 66.4%. For the same molecule, the Papp B→A at 2 h, 75 µM (in vitro [25]) was 16.3 ×10⁻⁶ cm/s, the viability at 24 h, 50 µM [26] was 98.8% and the inhibition [27] was “Active”. For the same molecule, the IC50 (Acetylcholinesterase) was greater than 50000 nM.
